Here are results for ten compounds from ChEMBL document CHEMBL5550187, “The Development of a Highly Potent and Selective Human Toll-like Receptor 2 Agonist: Synthesis and Biological Evaluation of CaLGL-1 and Its Derivatives” (J Med Chem, 2024).

By EC50 is commonly meant the concentration that produces a half-maximal response.

Structures are written as SMILES. The source made the active and inactive calls. No cut-off for these calls is given here.

Common to all, as to assay type: cell-based
Assay [1] deals with T1, Toll-like receptor 2 (Homo sapiens, UniProt O60603). As to the kind of experiment: Agonist activity at TLR2 in PMA-differentiated human THP-1 cells assessed as increase in TNF-alpha level by ELISA.
T1 sequence (O60603 whole entry): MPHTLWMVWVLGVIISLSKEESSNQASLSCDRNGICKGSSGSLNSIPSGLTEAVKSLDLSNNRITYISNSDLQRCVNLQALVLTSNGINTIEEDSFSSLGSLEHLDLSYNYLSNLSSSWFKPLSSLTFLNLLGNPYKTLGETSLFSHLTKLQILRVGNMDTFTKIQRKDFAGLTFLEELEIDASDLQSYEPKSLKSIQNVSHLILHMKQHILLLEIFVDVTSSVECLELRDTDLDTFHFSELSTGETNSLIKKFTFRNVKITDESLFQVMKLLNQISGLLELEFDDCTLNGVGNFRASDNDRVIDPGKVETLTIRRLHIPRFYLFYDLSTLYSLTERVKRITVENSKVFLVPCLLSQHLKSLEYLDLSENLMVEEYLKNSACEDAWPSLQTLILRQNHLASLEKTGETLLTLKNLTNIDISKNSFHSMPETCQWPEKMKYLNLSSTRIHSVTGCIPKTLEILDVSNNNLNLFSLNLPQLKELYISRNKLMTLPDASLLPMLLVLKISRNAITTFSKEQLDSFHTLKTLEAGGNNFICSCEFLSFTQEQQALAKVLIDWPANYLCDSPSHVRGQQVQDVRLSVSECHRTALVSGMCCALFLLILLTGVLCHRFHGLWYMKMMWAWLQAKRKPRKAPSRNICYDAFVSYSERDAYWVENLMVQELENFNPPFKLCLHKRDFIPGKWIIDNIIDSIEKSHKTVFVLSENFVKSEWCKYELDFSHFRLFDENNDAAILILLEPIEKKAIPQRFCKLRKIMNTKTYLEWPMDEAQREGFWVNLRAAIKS
Assay [2] addresses T1, Toll-like receptor 2. As to the kind of experiment: Agonist activity at human TLR2 transfected in HEK293T cells cotransfected with NF-kappaB promoter assessed as increase in NF-kappaB activation measured after 24 hrs by Dual-Glo luciferase assay. Conditions: filed as agonist.
The target in assay [3] is Toll-like receptor 1/2 (Homo sapiens) (UniProt O60603+Q15399). As to the kind of experiment: Agonist activity at human TLR1/TLR2 heterodimer transfected in HEK293T cells cotransfected with NF-kappaB promoter assessed as fold increase in NF-kappaB activation at 1 to 50 uM measured after 24 hrs by Dual-Glo luciferase assay relative to TLR2 alone. As to conditions: filed as agonist, dose 1-50 µM.

The next assay addresses TLR2/TLR6 (Homo sapiens) (UniProt O60603+Q9Y2C9). As to the kind of experiment: Agonist activity at human TLR2/TLR6 heterodimer transfected in HEK293T cells cotransfected with NF-kappaB promoter assessed as increase in NF-kappaB activation at 1 to 50 uM measured after 24 hrs by Dual-Glo luciferase assay. As to conditions: dose 1-50 µM.
Assay [4] has as its target Toll-like receptor 2 (Mus musculus) (UniProt Q9QUN7). As to the kind of experiment: Agonist activity at TLR2 in CSF-2/GM-CSF treated wild type C57BL/6 mouse BMDC cells assessed as increase in TNF-alpha mRNA expression at 10 uM measured after 24 hrs by qRT-PCR analysis. Background: Quantitative PCR measures a nucleic acid by following its amplification.
Assay [5] has the same target. Briefly: Agonist activity at TLR2 in CSF-2/GM-CSF treated wild type C57BL/6 mouse BMDC cells assessed as increase in TNF-alpha level at 10 uM measured after 24 hrs by ELISA. On the technique in general: In an ELISA, binding on a coated surface is turned into a signal by an enzyme label.
The target of assay [6] is T1, Toll-like receptor 2. As to the kind of experiment: Agonist activity at TLR2 in PMA-differentiated human THP-1 cells assessed as increase in TNF-alpha mRNA expression by qRT-PCR analysis.
Assay [7] has as its target T1, Toll-like receptor 2. Briefly: Agonist activity at TLR2 in PMA-differentiated human THP-1 cells assessed as increase in IL-1beta mRNA expression by qRT-PCR analysis.
For assay [8], the target named is T1, Toll-like receptor 2. As to the kind of experiment: Agonist activity at TLR2 in PMA-differentiated human THP-1 cells assessed as increase in IL-6 mRNA expression by qRT-PCR analysis.
Assay [9] has as its target Toll-like receptor 2 (Mus musculus, UniProt Q9QUN7). Briefly: Agonist activity at TLR2 in RmGM-CSF-induced wild type Black6 mouse BMDC cells lacking TLR4 assessed as increase in TNFalpha response incubated overnight by ELISA.

Chain of Toll-like receptor 2 (Mus musculus) (Q9QUN7 whole entry): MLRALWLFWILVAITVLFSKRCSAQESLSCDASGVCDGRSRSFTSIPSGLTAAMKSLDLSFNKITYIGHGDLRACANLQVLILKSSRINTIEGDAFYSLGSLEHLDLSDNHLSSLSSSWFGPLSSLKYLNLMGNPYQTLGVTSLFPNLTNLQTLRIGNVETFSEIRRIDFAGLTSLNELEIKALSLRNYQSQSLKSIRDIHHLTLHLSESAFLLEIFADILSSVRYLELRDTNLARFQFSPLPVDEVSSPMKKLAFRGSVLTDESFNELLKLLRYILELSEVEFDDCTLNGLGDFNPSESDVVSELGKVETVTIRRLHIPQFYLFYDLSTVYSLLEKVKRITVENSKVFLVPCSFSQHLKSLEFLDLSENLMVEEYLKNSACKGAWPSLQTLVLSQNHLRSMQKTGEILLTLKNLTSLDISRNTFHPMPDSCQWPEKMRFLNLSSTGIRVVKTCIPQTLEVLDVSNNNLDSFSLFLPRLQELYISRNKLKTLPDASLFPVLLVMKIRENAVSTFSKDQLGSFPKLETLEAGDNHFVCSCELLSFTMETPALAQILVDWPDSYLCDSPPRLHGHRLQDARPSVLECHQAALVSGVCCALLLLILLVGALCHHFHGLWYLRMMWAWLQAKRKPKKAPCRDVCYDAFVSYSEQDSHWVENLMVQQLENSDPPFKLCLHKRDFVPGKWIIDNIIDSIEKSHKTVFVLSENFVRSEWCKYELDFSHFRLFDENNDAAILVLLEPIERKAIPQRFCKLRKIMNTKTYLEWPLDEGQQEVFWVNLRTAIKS
Chain of Toll-like receptor 2 (Mus musculus, UniProt Q9QUN7) (Q9QUN7 whole entry): as above

Take `CCCCCCCCCCCC[C@@H]1OC[C@H]([C@@H]2O[C@@H](OC[C@H](O)COC(=O)CCCCCCCCCCC)[C@H](O)[C@H]2O)O1`: the EC50 at Toll-like receptor 2 [1] was 0.116 nM. Further, at Toll-like receptor 2 [2], the outcome was Active. For the same compound, in assay [3], the fold change (FC) turned out to be 15. Moreover, the outcome at TLR2/TLR6 (Homo sapiens) was inactive.
As to `CCCCCCCCCCCC(=O)OC[C@@H](O)CO[C@@H]1O[C@@H]([C@H]2CO[C@H](CCCCCCCCCCC)O2)[C@H](O)[C@H]1O`, the result in assay [4] (filed as agonist) and in [5] (filed as agonist) was Active.
As to `CCCCCCCCCCCCCCCCCCC[C@H]1OC[C@H]([C@@H]2O[C@@H](OC[C@H](O)COC(=O)CCCCCCCCCCC)[C@H](O)[C@H]2O)O1`, the result in assay [4] and in [5] was inactive.
For the compound `CCCCCCCCCCCCCCCCC[C@@H]1OC[C@H]([C@@H]2O[C@@H](OC[C@H](O)COC(=O)CCCCCCCCCCC)[C@H](O)[C@H]2O)O1`, the result in assay [4] and in assay [5] was inactive.
On to `CCCCCCCCCCCC(=O)OC[C@@H](O)CO[C@@H]1O[C@@H]([C@H]2CO[C@@H](CCCCCCCCC)O2)[C@H](O)[C@H]1O`, for which the outcome in [4] (filed as agonist) and in assay [5] (filed as agonist) was Active.
For the compound `CCCCCCCCCCCCCCCCC[C@H]1OC[C@H]([C@@H]2O[C@@H](OC[C@H](O)COC(=O)CCCCCCCCCCC)[C@H](O)[C@H]2O)O1`, the outcome in assay [4] and in assay [5] was inactive.
As for `CCCCCCCCCCCC(=O)OC[C@@H](O)CO[C@@H]1O[C@@H]([C@H]2CO[C@@H](CCCCCCCCCCC)O2)[C@H](O)[C@H]1O`, the result (at Toll-like receptor 2 [6] (filed as agonist); at Toll-like receptor 2 [7] (filed as agonist); on Toll-like receptor 2 [8] (filed as agonist); in assay [4] (filed as agonist); in [5] (filed as agonist)) was Active.
As to `CCCCCCCCCCCCC[C@@H]1OC[C@H]([C@@H]2O[C@@H](OC[C@H](O)COC(=O)CCCCCCCCCCC)[C@H](O)[C@H]2O)O1`, the result on Toll-like receptor 2 [6], on Toll-like receptor 2 [7] and at Toll-like receptor 2 [8] was inactive. In addition, the EC50 at Toll-like receptor 2 [9] is 3200 nM.
As to `CCCCCCCCCCCCCCCCCCC[C@@H]1OC[C@H]([C@@H]2O[C@@H](OC[C@H](O)COC(=O)CCCCCCCCCCC)[C@H](O)[C@H]2O)O1`, the result in [4] and in [5] was inactive.
For the compound `CCCCCCCCCCCC(=O)OC[C@@H](O)CO[C@@H]1O[C@@H]([C@H]2CO[C@H](CCCCCCCCC)O2)[C@H](O)[C@H]1O`, the outcome in assay [4] (filed as agonist) and in assay [5] (filed as agonist) was Active.
